Test: xn = mol fraction of the nth substance listed
Details: 100 kPa, Liquid; for viscosity: Cone and plate viscometry; for electrical conductivity: Direct current cell with electrodes; for mass density: Vibrating tube method

CCCn1cc[n+](C)c1.O=S(=O)([N-]S(=O)(=O)C(F)(F)F)C(F)(F)F + O=C1CCCO1
Details	electrical conductivity [S/m]	mass density [kg/m3]	viscosity [mPa·s]
293.15 K, x1 = 0.05	1.04	1185.12	–
293.15 K, x1 = 0.0999	–	1229.6	–
293.15 K, x1 = 0.1	1.37	–	3.42
293.15 K, x1 = 0.15	1.45	–	4.3
293.15 K, x1 = 0.1999	1.37	1295.75	5.28
293.15 K, x1 = 0.2912	1.2	1338.94	–
293.15 K, x1 = 0.2996	–	–	8.1
293.15 K, x1 = 0.4005	0.89	1377.51	11.48
293.15 K, x1 = 0.4986	0.707	1403.93	15.9
293.15 K, x1 = 0.6	0.595	1425.6	21.71
293.15 K, x1 = 0.6997	0.498	1442.85	28.23
293.15 K, x1 = 0.7998	0.428	1457.11	35.85
293.15 K, x1 = 0.8818	0.387	1467.07	43.07
293.15 K, x1 = 1	0.355	1479.32	54.19
298.15 K, x1 = 0.05	1.13	1180.18	–
298.15 K, x1 = 0.0999	–	1224.68	–
298.15 K, x1 = 0.1	1.5	–	3.16
298.15 K, x1 = 0.15	1.6	–	3.94
298.15 K, x1 = 0.1999	1.52	1290.81	4.75
298.15 K, x1 = 0.2912	1.38	1333.98	–
298.15 K, x1 = 0.2996	–	–	7.17
298.15 K, x1 = 0.4005	1.1	1372.56	9.96
298.15 K, x1 = 0.4986	0.87	1398.93	13.62
298.15 K, x1 = 0.6	0.692	1420.58	18.38
298.15 K, x1 = 0.6997	0.604	1437.83	23.68
298.15 K, x1 = 0.7998	0.526	1452.07	29.72
298.15 K, x1 = 0.8818	0.472	1462.02	35.46
298.15 K, x1 = 1	0.435	1474.24	43.94
303.15 K, x1 = 0.05	1.22	1175.2	–
303.15 K, x1 = 0.0999	–	1219.69	–
303.15 K, x1 = 0.1	1.63	–	2.92
303.15 K, x1 = 0.15	1.75	–	3.6
303.15 K, x1 = 0.1999	1.67	1285.84	4.3
303.15 K, x1 = 0.2912	1.56	1329.01	–
303.15 K, x1 = 0.2996	–	–	6.31
303.15 K, x1 = 0.4005	1.22	1367.63	8.69
303.15 K, x1 = 0.4986	1.02	1394.03	11.81
303.15 K, x1 = 0.6	0.796	1415.71	15.67
303.15 K, x1 = 0.6997	0.714	1432.97	19.81
303.15 K, x1 = 0.7998	0.629	1447.22	24.68
303.15 K, x1 = 0.8818	0.564	1457.17	28.84
303.15 K, x1 = 1	0.521	1469.4	35.92
308.15 K, x1 = 0.05	1.31	1170.18	–
308.15 K, x1 = 0.0999	–	1214.67	–
308.15 K, x1 = 0.1	1.76	–	2.68
308.15 K, x1 = 0.15	1.9	–	3.3
308.15 K, x1 = 0.1999	1.85	1280.78	3.91
308.15 K, x1 = 0.2912	1.75	1323.97	–
308.15 K, x1 = 0.2996	–	–	5.67
308.15 K, x1 = 0.4005	1.44	1362.59	7.71
308.15 K, x1 = 0.4986	1.27	1389.01	10.31
308.15 K, x1 = 0.6	0.992	1410.7	13.51
308.15 K, x1 = 0.6997	0.827	1427.98	17.13
308.15 K, x1 = 0.7998	0.737	1442.24	21
308.15 K, x1 = 0.8818	0.667	1452.2	24.51
308.15 K, x1 = 1	0.611	1464.43	30
313.15 K, x1 = 0.05	1.42	1165.15	–
313.15 K, x1 = 0.0999	–	1209.63	–
313.15 K, x1 = 0.1	1.9	–	2.49
313.15 K, x1 = 0.15	2.06	–	3.06
313.15 K, x1 = 0.1999	2.02	1275.71	3.57
313.15 K, x1 = 0.2912	1.94	1318.9	–
313.15 K, x1 = 0.2996	–	–	5.1
313.15 K, x1 = 0.4005	1.64	1357.55	6.92
313.15 K, x1 = 0.4986	1.44	1383.98	9.13
313.15 K, x1 = 0.6	1.15	1405.67	11.92
313.15 K, x1 = 0.6997	1.03	1422.96	14.78
313.15 K, x1 = 0.7998	0.849	1437.25	17.93
313.15 K, x1 = 0.8818	0.789	1447.22	20.73
313.15 K, x1 = 1	0.71	1459.44	25.32
318.15 K, x1 = 0.05	1.52	1159.99	–
318.15 K, x1 = 0.0999	–	1204.53	–
318.15 K, x1 = 0.1	2.03	–	2.3
318.15 K, x1 = 0.15	2.22	–	2.8
318.15 K, x1 = 0.1999	2.24	1270.69	3.25
318.15 K, x1 = 0.2912	2.13	1313.92	–
318.15 K, x1 = 0.2996	–	–	4.6
318.15 K, x1 = 0.4005	1.92	1352.58	6.2
318.15 K, x1 = 0.4986	1.68	1379.05	8.06
318.15 K, x1 = 0.6	1.41	1400.79	10.43
318.15 K, x1 = 0.6997	1.21	1418.09	12.8
318.15 K, x1 = 0.7998	0.997	1432.4	15.49
318.15 K, x1 = 0.8818	0.883	1442.41	17.84
318.15 K, x1 = 1	0.813	1454.63	21.58
323.15 K, x1 = 0.05	1.64	1154.83	–
323.15 K, x1 = 0.0999	–	1199.33	–
323.15 K, x1 = 0.1	2.17	–	2.13
323.15 K, x1 = 0.15	2.38	–	2.59
323.15 K, x1 = 0.1999	2.41	1265.59	3.01
323.15 K, x1 = 0.2912	2.33	1308.85	–
323.15 K, x1 = 0.2996	–	–	4.21
323.15 K, x1 = 0.4005	2.1	1347.55	5.59
323.15 K, x1 = 0.4986	1.9	1374.04	7.24
323.15 K, x1 = 0.6	1.64	1395.82	9.27
323.15 K, x1 = 0.6997	1.39	1413.16	11.31
323.15 K, x1 = 0.7998	1.15	1427.49	13.71
323.15 K, x1 = 0.8818	1.03	1437.5	15.72
323.15 K, x1 = 1	0.923	1449.73	18.82

From the NIST ThermoML archive (doi:10.1016/j.jct.2015.07.048)
